Laboratory results: patent publication US20240181014A1 (priority 2021, published 2024)
Like-named read-outs stand apart in the source and are kept apart here.

How the values were obtained:
[1] = compounded ALA (injection, suppository, topical, troche; intravenous); cited from earlier work
[2] = test system: post-COVID-19 syndrome patients; type: in vivo, human

| SMILES | safety concerns in available clinical reports [1] | blood oxygenation value pO2 at end of treatment ([2]; Example 4, patient) | status at control visit ([2]; Example 4, patient) | external oxygen supply ([2]; Example 4, patient, needed intermitted oxygenation before) | blood oxygenation value pO2 at room air ([2]; Example 4, patient, pO2 92 mmHg before) | breathing at end of treatment ([2]; Example 4, patient, severe difficulties to breath before) | breathing at end of treatment ([2]; Example 5, patient) | status at control visit ([2]; Example 5, patient) | blood oxygenation value pO2 at room air at end of treatment ([2]; Example 5, patient, pO2 93 mmHg before) | ability to work at end of treatment ([2]; Example 5, patient, unable to work due to extreme fatigue and cough before) |
| --- | --- | --- | --- | --- | --- | --- | --- | --- | --- | --- |
| O=C(O)CCCC[C@@H]1CCSS1 [ALA, (R)-5-(1,2-Dithiolan-3-yl)pentanoic acid] | no serious safety concerns | – | – | – | – | – | – | – | – | – |
| CC[C@H](C)[C@H](NC(=O)[C@H](CO)NC(=O)[C@H](CC(N)=O)NC(=O)[C@H](CC(C)C)NC(=O)[C@H](Cc1ccc(O)cc1)NC(=O)[C@H](CCCCN)NC(=O)[C@H](CCCCN)NC(=O)[C@@H](NC(=O)[C@H](C)NC(=O)[C@H](CCSC)NC(=O)[C@H](CCC(N)=O)NC(=O)[C@H](CCCCN)NC(=O)[C@H](CCCNC(=N)N)NC(=O)[C@H](CC(C)C)NC(=O)[C@H](CCCNC(=N)N)NC(=O)[C@@H](NC(=O)[C@H](Cc1ccc(O)cc1)NC(=O)[C@H](CC(N)=O)NC(=O)[C@H](CC(=O)O)NC(=O)[C@@H](NC(=O)[C@H](Cc1ccccc1)NC(=O)[C@@H](NC(=O)[C@H](C)NC(=O)[C@H](CC(=O)O)NC(=O)[C@H](CO)NC(=O)[C@@H](N)Cc1c[nH]cn1)C(C)C)[C@@H](C)O)[C@@H](C)O)C(C)C)C(=O)N[C@@H](CC(C)C)C(=O)N[C@@H](CC(N)=O)C(N)=O [Aviptadil] | – | 97 mmHg | considered healthy | off external oxygen supply | 96 mmHg | breathed normally | breathed normally | considered healthy without any further post-COVID symptoms | 98 mmHg | returned to their professional work |
